According to ChEMBL document CHEMBL5705898 (Proc Natl Acad Sci U S A, 2014):

What was measured:
[1] = biological target: T1, Histone-lysine N-methyltransferase SETD7 (Homo sapiens, UniProt Q8WTS6); test: Inhibition of full length human SETD7 (1 to 366 residues) expressed in Escherichia coli BL21 (DE3) V2R-pRARE assessed as apparent inhibition constant using biotinylated H3 (1-25) peptide as substrate incubated for 1 hrs in presence of 3H-SAM by morrison equation; conditions: read-out: Ki(app)
T1 sequence (Q8WTS6 whole entry): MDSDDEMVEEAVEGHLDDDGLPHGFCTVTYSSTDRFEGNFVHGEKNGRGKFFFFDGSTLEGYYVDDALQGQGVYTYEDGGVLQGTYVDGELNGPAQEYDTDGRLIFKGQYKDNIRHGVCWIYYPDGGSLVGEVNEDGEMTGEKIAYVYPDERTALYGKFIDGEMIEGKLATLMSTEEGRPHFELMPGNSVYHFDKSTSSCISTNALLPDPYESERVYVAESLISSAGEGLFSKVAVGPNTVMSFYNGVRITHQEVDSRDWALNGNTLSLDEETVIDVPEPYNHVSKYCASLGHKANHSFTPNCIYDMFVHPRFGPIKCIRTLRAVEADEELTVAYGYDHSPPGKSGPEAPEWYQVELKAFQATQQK

[2] = Lipophilicity, logD of compound at pH 7.4; assay type: physicochemical; conditions: buffer
[3] = test system: MDA-MB-231; test: Cytotoxicity against human MDA-MB-231 cells assessed as reduction in cell viability at <50 uM by alamar blue assay; assay type: toxicity, cell-based; conditions: mda-mb-231, 50 µM
[4] = biological target: Adenosine receptor A2b (Homo sapiens) (UniProt P29275); test: Inhibition of human A2B receptor at 10 uM relative to control
[5] = biological target: Alpha-1A adrenergic receptor (Homo sapiens) (UniProt P35348); test: Inhibition of human alpha 1A receptor at 10 uM relative to control
[6] = biological target: Alpha-2C adrenergic receptor (Homo sapiens) (UniProt P18825); test: Inhibition of human alpha 2C receptor at 10 uM relative to control
[7] = biological target: B2 bradykinin receptor (Homo sapiens) (UniProt P30411); test: Inhibition of human B2 receptor at 10 uM relative to control
[8] = biological target: Corticotropin-releasing factor receptor 1 (Homo sapiens) (UniProt P34998); test: Inhibition of human CRF1 receptor at 10 uM relative to control
[9] = biological target: D(1A) dopamine receptor (Homo sapiens) (UniProt P21728); test: Inhibition of human D1 receptor at 10 uM relative to control
[10] = biological target: D(2) dopamine receptor (Homo sapiens) (UniProt P14416); test: Inhibition of human D2S receptor at 10 uM relative to control
[11] = biological target: Endothelin-1 receptor (Homo sapiens) (UniProt P25101); test: Inhibition of human ETA receptor at 10 uM relative to control
[12] = biological target: GABA-A receptor; alpha-1/beta-2/gamma-2 (Homo sapiens) (UniProt P14867+P47870+P18507); test: Inhibition of human GABA alpha1/beta2/gamma2 at 10 uM relative to control; assay type: protein-complex assay
[13] = species: Homo sapiens; test: Inhibition of kainate receptor (unknown origin) at 10 uM relative to control
[14] = species: Homo sapiens; test: Inhibition of strychnine-insensitive glycine receptor (unknown origin) at 10 uM relative to control
[15] = biological target: Histamine H1 receptor (Homo sapiens) (UniProt P35367); test: Inhibition of human H1 receptor at 10 uM relative to control
[16] = biological target: Melanin-concentrating hormone receptor 1 (Homo sapiens) (UniProt Q99705); test: Inhibition of human MCH1 receptor at 10 uM relative to control
[17] = biological target: MAO-A (Amine oxidase [flavin-containing] A) (Homo sapiens, UniProt P21397); test: Inhibition of MAO-A (unknown origin) at 10 uM relative to control
[18] = biological target: Muscarinic acetylcholine receptor M3 (Homo sapiens) (UniProt P20309); test: Inhibition of human M3 receptor at 10 uM relative to control
[19] = biological target: Neuropeptide Y receptor type 1 (Homo sapiens) (UniProt P25929); test: Inhibition of human Y1 receptor at 10 uM relative to control
[20] = biological target: Delta-type opioid receptor (Homo sapiens) (UniProt P41143); test: Inhibition of human delta 2 opioid receptor at 10 uM relative to control
[21] = species: Homo sapiens; test: Inhibition of human NOP(ORL1) at 10 uM relative to control
[22] = biological target: Prostaglandin E2 receptor EP2 subtype (Homo sapiens) (UniProt P43116); test: Inhibition of human EP2 receptor at 10 uM relative to control
[23] = biological target: Oxysterols receptor LXR-beta (Homo sapiens) (UniProt P55055); test: Inhibition of human LXRbeta at 10 uM relative to control
[24] = biological target: 5-hydroxytryptamine receptor 1D (Homo sapiens) (UniProt P28221); test: Inhibition of 5-HT1D receptor (unknown origin) at 10 uM relative to control
[25] = biological target: Glucocorticoid receptor (Homo sapiens) (UniProt P04150); test: Inhibition of human GR at 10 uM relative to control
[26] = biological target: Androgen receptor (Homo sapiens) (UniProt P10275); test: Inhibition of human AR at 10 uM relative to control
[27] = species: Homo sapiens; test: Inhibition of human TR at 10 uM relative to control
[28] = biological target: Vasopressin V1a receptor (Homo sapiens) (UniProt P37288); test: Inhibition of human V1a at 10 uM relative to control
[29] = species: Homo sapiens; test: Inhibition of Ca2+ channel L, verapamil site (unknown origin) at 10 uM relative to control
[30] = biological target: Sodium-dependent serotonin transporter (Homo sapiens) (UniProt P31645); test: Inhibition of human 5-HT transporter at 10 uM relative to control
[31] = biological target: Nitric oxide synthase, inducible (Homo sapiens) (UniProt P35228); test: Inhibition of inducible NOS (unknown origin) at 10 uM relative to control
[32] = species: Homo sapiens; test: Inhibition of PDE6 (unknown origin) at 10 uM relative to control
[33] = biological target: Angiotensin-converting enzyme (Homo sapiens) (UniProt P12821); test: Inhibition of human ACE at 10 uM relative to control
[34] = biological target: Angiotensin-converting enzyme 2 (Homo sapiens) (UniProt Q9BYF1); test: Inhibition of human ACE-2 at 10 uM relative to control
[35] = biological target: Human immunodeficiency virus type 1 protease (Human immunodeficiency virus 1) (UniProt Q72874); test: Inhibition of HIV-1 protease at 10 uM relative to control
[36] = biological target: Mitogen-activated protein kinase 14 (Homo sapiens) (UniProt Q16539); test: Inhibition of human P38alpha kinase at 10 uM relative to control
[37] = biological target: Tyrosine-protein kinase ZAP-70 (Homo sapiens) (UniProt P43403); test: Inhibition of human ZAP70 kinase at 10 uM relative to control
[38] = biological target: Acetylcholinesterase (Homo sapiens) (UniProt P22303); test: Inhibition of human acetylcholinesterase at 10 uM relative to control
[39] = biological target: Bombesin receptor subtype-3 (Homo sapiens, UniProt P32247); test: Inhibition of human BB3 receptor

Prostaglandin E2 receptor EP2 subtype (Homo sapiens), sequence (P43116 whole entry): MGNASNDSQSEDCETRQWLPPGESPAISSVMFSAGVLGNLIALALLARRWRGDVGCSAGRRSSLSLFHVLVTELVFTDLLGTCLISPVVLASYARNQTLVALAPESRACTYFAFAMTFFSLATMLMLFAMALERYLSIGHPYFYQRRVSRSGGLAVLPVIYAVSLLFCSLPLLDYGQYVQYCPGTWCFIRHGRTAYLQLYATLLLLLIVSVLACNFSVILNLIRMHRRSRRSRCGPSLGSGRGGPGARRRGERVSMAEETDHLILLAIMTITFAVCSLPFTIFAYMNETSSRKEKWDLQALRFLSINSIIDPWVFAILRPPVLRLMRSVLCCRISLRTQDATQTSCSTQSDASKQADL
Muscarinic acetylcholine receptor M3 (Homo sapiens), sequence (P20309 whole entry, looked up): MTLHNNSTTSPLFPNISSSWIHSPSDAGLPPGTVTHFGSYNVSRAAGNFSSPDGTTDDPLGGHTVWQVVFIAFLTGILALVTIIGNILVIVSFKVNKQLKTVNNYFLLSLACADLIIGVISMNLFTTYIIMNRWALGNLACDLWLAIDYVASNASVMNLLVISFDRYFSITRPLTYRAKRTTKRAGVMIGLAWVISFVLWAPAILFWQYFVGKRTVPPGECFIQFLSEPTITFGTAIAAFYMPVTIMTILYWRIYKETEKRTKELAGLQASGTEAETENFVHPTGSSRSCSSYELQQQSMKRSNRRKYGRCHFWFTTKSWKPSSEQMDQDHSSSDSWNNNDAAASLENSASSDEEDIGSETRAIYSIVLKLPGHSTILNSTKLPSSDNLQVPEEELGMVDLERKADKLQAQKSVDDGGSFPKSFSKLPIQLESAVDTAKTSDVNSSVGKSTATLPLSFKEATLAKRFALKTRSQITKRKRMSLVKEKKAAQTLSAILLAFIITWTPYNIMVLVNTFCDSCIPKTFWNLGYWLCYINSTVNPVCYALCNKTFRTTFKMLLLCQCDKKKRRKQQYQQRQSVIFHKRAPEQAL
Melanin-concentrating hormone receptor 1 (Homo sapiens), sequence (Q99705 whole entry): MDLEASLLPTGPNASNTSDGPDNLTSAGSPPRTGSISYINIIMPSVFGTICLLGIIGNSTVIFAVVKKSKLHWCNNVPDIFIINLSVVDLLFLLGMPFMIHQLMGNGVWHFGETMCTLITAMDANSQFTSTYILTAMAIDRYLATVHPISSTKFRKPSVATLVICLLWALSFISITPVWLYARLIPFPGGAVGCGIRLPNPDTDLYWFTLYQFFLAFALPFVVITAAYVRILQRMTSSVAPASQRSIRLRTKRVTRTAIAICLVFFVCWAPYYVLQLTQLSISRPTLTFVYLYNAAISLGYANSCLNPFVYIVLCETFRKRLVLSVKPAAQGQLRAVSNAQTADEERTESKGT
Alpha-1A adrenergic receptor (Homo sapiens), sequence (P35348 whole entry): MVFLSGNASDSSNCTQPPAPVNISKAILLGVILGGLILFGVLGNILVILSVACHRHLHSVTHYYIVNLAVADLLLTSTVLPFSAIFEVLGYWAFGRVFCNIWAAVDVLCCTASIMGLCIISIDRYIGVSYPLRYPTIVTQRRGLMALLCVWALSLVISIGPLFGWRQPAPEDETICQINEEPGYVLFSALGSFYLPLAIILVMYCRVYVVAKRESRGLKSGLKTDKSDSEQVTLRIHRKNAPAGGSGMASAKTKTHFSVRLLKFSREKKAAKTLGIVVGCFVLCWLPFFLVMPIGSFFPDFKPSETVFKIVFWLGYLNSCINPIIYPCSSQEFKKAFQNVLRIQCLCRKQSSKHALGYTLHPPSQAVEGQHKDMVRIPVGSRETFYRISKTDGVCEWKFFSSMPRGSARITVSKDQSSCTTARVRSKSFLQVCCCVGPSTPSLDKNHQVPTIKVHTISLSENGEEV
D(2) dopamine receptor (Homo sapiens), sequence (P14416 whole entry): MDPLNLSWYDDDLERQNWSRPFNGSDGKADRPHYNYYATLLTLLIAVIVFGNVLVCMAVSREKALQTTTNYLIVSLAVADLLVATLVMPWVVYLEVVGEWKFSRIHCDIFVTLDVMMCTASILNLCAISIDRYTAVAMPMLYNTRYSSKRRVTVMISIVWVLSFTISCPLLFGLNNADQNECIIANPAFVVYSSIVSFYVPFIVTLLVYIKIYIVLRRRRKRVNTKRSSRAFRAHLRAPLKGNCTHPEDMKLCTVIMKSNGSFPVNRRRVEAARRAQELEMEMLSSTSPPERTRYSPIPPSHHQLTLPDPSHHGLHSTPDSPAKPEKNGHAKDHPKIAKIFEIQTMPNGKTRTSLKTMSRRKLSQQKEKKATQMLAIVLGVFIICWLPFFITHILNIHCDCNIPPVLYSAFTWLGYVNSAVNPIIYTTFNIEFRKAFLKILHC
Histamine H1 receptor (Homo sapiens), sequence (P35367 whole entry): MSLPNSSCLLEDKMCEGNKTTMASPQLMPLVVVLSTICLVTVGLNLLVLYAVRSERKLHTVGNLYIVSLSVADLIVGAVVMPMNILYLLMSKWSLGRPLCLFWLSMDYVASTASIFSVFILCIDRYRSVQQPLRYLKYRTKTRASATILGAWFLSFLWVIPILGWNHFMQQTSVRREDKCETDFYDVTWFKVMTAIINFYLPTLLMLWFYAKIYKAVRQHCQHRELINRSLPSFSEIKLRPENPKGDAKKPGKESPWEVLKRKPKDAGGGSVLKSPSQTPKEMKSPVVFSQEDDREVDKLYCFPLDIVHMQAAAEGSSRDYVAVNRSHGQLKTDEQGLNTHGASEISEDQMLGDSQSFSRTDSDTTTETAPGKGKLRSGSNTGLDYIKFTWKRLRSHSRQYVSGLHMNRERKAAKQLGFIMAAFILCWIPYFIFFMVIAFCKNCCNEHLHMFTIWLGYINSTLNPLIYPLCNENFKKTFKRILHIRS
Corticotropin-releasing factor receptor 1 (Homo sapiens), sequence (P34998 whole entry): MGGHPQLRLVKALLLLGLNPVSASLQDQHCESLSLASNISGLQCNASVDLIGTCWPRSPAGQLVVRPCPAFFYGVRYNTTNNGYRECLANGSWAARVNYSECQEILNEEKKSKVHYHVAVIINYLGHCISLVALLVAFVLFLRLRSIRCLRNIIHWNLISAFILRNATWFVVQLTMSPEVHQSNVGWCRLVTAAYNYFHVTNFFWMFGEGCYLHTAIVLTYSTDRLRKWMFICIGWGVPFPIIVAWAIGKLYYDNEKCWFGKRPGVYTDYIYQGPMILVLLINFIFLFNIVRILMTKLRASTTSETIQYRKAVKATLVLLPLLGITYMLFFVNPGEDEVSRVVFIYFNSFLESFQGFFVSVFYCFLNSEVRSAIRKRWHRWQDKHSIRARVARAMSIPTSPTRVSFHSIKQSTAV
Delta-type opioid receptor (Homo sapiens), sequence (P41143 whole entry): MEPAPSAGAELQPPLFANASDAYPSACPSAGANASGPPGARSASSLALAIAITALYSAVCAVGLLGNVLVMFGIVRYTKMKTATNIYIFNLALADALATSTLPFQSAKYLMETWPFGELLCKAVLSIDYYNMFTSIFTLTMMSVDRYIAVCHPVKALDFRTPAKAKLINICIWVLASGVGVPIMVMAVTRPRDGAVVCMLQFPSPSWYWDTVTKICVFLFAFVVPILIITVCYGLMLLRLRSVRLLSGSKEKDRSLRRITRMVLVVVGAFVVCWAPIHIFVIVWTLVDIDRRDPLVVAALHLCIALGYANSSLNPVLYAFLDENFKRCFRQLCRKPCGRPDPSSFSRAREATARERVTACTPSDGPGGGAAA
Sodium-dependent serotonin transporter (Homo sapiens), sequence (P31645 whole entry, looked up): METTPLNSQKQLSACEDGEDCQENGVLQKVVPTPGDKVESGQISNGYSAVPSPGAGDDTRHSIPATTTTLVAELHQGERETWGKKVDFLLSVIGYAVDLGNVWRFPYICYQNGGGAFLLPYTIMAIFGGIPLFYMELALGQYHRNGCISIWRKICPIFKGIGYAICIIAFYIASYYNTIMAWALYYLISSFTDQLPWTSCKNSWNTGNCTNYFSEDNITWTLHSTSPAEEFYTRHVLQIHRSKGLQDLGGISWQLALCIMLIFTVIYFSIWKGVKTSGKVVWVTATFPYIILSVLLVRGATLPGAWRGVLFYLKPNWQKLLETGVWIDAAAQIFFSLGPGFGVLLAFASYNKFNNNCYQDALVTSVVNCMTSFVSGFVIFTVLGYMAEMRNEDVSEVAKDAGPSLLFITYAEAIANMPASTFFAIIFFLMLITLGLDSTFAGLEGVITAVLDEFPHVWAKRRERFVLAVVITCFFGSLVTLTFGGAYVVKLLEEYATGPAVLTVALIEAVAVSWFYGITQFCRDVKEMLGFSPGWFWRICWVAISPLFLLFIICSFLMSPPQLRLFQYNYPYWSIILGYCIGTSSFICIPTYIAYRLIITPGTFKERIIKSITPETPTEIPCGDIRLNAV
Endothelin-1 receptor (Homo sapiens), sequence (P25101 whole entry): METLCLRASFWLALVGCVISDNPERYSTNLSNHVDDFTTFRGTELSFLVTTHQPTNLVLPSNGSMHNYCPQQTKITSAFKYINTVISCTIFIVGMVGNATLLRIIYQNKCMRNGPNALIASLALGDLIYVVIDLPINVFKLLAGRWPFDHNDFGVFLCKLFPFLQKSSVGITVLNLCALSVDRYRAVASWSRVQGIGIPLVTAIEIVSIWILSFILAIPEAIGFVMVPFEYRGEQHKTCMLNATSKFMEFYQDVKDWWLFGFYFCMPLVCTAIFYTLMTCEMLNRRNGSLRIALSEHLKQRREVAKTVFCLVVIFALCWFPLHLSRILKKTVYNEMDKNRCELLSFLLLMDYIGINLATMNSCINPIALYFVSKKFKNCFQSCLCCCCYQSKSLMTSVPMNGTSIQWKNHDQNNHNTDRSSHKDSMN
Mitogen-activated protein kinase 14 (Homo sapiens), sequence (Q16539 whole entry): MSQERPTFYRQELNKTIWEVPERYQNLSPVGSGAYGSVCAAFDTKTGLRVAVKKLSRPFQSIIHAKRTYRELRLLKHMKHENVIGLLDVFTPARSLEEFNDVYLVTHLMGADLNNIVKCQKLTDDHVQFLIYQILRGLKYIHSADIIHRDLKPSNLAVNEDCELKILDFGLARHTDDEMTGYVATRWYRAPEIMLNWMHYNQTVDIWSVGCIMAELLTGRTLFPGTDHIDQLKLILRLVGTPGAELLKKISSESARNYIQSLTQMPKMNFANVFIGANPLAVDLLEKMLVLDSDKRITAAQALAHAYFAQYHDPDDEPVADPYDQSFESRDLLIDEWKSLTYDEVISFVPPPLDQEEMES

Q: Which Ki [1] does the source give for `O=C([C@@H](Cc1cccc(C(F)(F)F)c1)NS(=O)(=O)c1cc(F)c2c(c1)CCNC2)N1CCCC1` here?
A: Its Ki is 0.00033 µM.

Q: And the logD [2]?
A: The logD was 2.3.

Q: What about the Activity [3] of the same compound?
A: The Activity was “Non-Toxic”.

Q: And the inhibition [4]?
A: Its inhibition is -3%.

Q: What about the inhibition [5] of the same compound?
A: The inhibition was -3%.

Q: What about the inhibition [6] of the same compound?
A: Its inhibition is 10%.

Q: And the inhibition [7]?
A: The inhibition was 0%.

Q: What about the inhibition [8] of the same compound?
A: Its inhibition is -7%.

Q: And the inhibition [9]?
A: Its inhibition is 0%.

Q: And the inhibition [10]?
A: The inhibition was 39%.

Q: And the inhibition [11]?
A: The inhibition was 10%.

Q: And the inhibition [12]?
A: Its inhibition is -10%.

Q: And the inhibition [13]?
A: Its inhibition is -3%.

Q: And the inhibition [14]?
A: The inhibition was -1%.

Q: What about the inhibition [15] of the same compound?
A: The inhibition was 10%.

Q: And the inhibition [16]?
A: Its inhibition is -1%.

Q: And the inhibition at 10 µM [17]?
A: The inhibition at 10 µM was 6%.

Q: And the inhibition [18]?
A: Its inhibition is 37%.

Q: And the inhibition [19]?
A: The inhibition was -8%.

Q: What about the inhibition [20] of the same compound?
A: Its inhibition is 47%.

Q: And the inhibition [21]?
A: The inhibition was 11%.

Q: And the inhibition [22]?
A: Its inhibition is -1%.

Q: And the inhibition [23]?
A: Its inhibition is 5%.

Q: What about the inhibition [24] of the same compound?
A: Its inhibition is 10%.

Q: What about the inhibition [25] of the same compound?
A: The inhibition was 5%.

Q: And the inhibition [26]?
A: Its inhibition is 1%.

Q: What about the inhibition [27] of the same compound?
A: The inhibition was 5%.

Q: What about the inhibition [28] of the same compound?
A: The inhibition was 8%.

Q: And the inhibition [29]?
A: The inhibition was 18%.

Q: And the inhibition [30]?
A: Its inhibition is 9%.

Q: And the inhibition [31]?
A: The inhibition was -7%.

Q: And the inhibition [32]?
A: Its inhibition is 11%.

Q: What about the inhibition [33] of the same compound?
A: Its inhibition is -4%.

Q: What about the inhibition [34] of the same compound?
A: The inhibition was 4%.

Q: And the inhibition [35]?
A: Its inhibition is -4%.

Q: What about the inhibition [36] of the same compound?
A: The inhibition was -6%.

Q: What about the inhibition [37] of the same compound?
A: The inhibition was 13%.

Q: What about the inhibition [38] of the same compound?
A: The inhibition was 0%.

Q: And the IC50 [39]?
A: Its IC50 is 8.1 µM.
